Measured values as given in patent US11596622B2, “Mazindol treatment for heroin dependence and substance use disorder” (NLS Pharmaceutics AG, priority 2017, dated 2023).

Key:
Sprague-Dawley rats = assay: Naloxone precipitated withdrawal syndrome of heroin; assay type: in vivo
Protocol: The abrupt cessation of chronic opiate use results in a well characterized withdrawal syndrome with symptoms that include pain sensitivity, dysphoria, irritability, restlessness, insomnia, diarrhea and hyperventilation. In the present model, the naloxone-precipitated withdrawal syndrome is measured in rodents. Animals are chronically treated with a drug, e.g. morphine or heroin. Opiate withdrawal syndrome is elicited by an acute injection of the opiate antagonist Naloxone.
The effect of mazindol on heroin withdrawal syndrome elicited by naloxone was examined in Sprague-Dawley rats using a method similar to the one used by Jiang et al. (10),
Animals were subdivided into two groups. One group received heroin two i.p. injections/day for 12 consecutive days and a single injection on the 13th day (total: 25 injections) as exposed in Table 3 group received saline instead of heroin following the same protocol.
On day 13, animals received treatments and were tested according to the following time schedule: • T=0: i.p. injection of heroin (15 mg/kg) or vehicle. • T=2.5 h: animals individually placed in a transparent Plexiglas observation boxes (40×40×40 cm). • T=3.5 h: i.p. injection of treatment (see below). • T=4 h: i.p. injection of naloxone (5 mg/kg), start of test: observation of withdrawal symptoms as indicated in Table 4. • T=5 h: end of test, animals placed back into their home cages.
Animals received the following treatments at T 3.5 h (i.e. 30 min before injection of naloxone and observation of symptoms): • 1) Animals treated with saline during the intoxication period (days 1-12) and at T0 on day 13: • Saline group (N=8): saline (0.9% NaCl). • 2) Animals treated with […] during the intoxication period (days 1-12) and at T0 on day 13: • Hero group (N=14): saline (0.9% NaCl). • Amph 1 group (N=4): D-amphetamine (1 mg/kg). • Maz 0.125 group (N=5): mazindol (0.125 mg/kg). • Maz 0.25 group (N=6): mazindol (0.25 mg/kg). • Maz 0.5 group (N=6): mazindol (0.5 mg/kg). • Maz 1 group (N=6): mazindol (1 mg/kg). • Maz 2 group (N=5): mazindol (2 mg/kg).
A weighting factor was ascribed for each sign from which a score was calculated.
Examples: • Body weight before naloxone injection=241 g; after naloxone injection=236 g: • Weight loss score=2=100×(241−236)/241 • Number of escape attempts=8: • Score for escape attempts=2 • Profuse salivation present: • Score for profuse salivation
A global withdrawal score was then calculated: • Global score=the sum of the scores

C57BL/6J mice = assay: Effect of treatment on the conditioned place preference induced by heroin; assay type: in vivo; settings: for Distance travelled in the drug-paired compartment / Distance travelled in the two compartments (Drug + Vehicle) / Distance travelled in the vehicle-paired compartment / Distance travelled, drug-paired minus vehicle-paired compartment / Time spent in the drug-paired compartment / Time spent in the vehicle-paired compartment / Time spent, drug-paired minus vehicle-paired compartment: mean
Description: Conditioned place preference (CPP) is a widely used procedure for studying the potential addictive effect of drugs. CPP is based upon the tendency of rodents to approach a stimulus that has previously been paired with an incentive state induced by a drug. A drug that induces a CPP may be suspected to present reinforcing effects that could lead to addiction. Numerous addictive drugs, such as opiate agonists or stimulants induce a CPP and a behavioral sensitization.
The effect of mazindol on place preference was examined in C57BL/6J mice using a method similar to the one used by Schlussman et al. (9).
The third experiments consisted in examining the effects of mazindol and D-amphetamine (at doses chosen from results of the first part of the study) on the place preference induced by heroin at a dose chosen from results of the second experiment, which was 1.25 mg/kg. Mazindol (0.125, 0.25 and 0.5 mg/kg) and D-amphetamine (0.5 mg/kg) were tested.
Therefore, it was decided to perform an additional experiment to examine the effects on place preference induced by heroin of mazindol at 1 and 2 mg/kg and of D-amphetamine at 1 mg/kg.
(§1) Following the habituation session (on day 1), animals (N=72) were pseudo-randomly assigned to two groups, a Control group (N=12) and a Heroin group (N=60), in a way that there was no significant difference between the two groups for the total distance travelled in the apparatus and for the percentage of time spent and the percentage distance travelled in the grey compartment and in the striped compartment.
Animals received the following treatments immediately before drug sessions: • Control group: vehicle • Heroin group: heroin (1.25 mg/kg)
(§2) Following the last conditioning session, the Heroin group was pseudo-randomly divided into 5 groups (N=12/group) in a way that there was no significant difference between groups for the total distance travelled in the apparatus and for the percentage of time spent and the percentage distance travelled in the grey compartment and in the striped compartment in habituation session, for the distance travelled in the drug-paired and in the vehicle-paired compartments in conditioning sessions and for the proportion of striped drug-paired compartments.
Animals received the following treatments before preference session: • Control group: vehicle of mazindol, i.p. 60 min before testing. • Hero group: vehicle of mazindol, i.p. 60 min before testing. • Hero-A 0.5 group: D-amphetamine (0.5 mg/kg), i.p. 30 min before testing. • Hero-Mz 0.125 group: mazindol (0.125 mg/kg), i.p. 60 min before testing. • Hero-Mz 0.25 group: mazindol (0.25 mg/kg), i.p. 60 min before testing. • Hero-Mz 0.5 group: mazindol (0.5 mg/kg), i.p. 60 min before testing.
as §1, with “three” for “two”, “(N=12),” for “(N=12) and”, “(N=48) and a Mazindol group (N=12),” for “(N=60),”
Animals received the following treatments before drug sessions: • Control group: vehicle, i.p. immediately before session. • Heroin group: heroin (1.25 mg/kg), i.p. immediately before session. • MAZ 2 group: mazindol (2 mg/kg), i.p. 60 min before session.
as §2, with “into 4” for “into 5”, “there is” for “there was”, “compartments. […]” for “compartments.”

[1] = Amph 1: heroin-treated rats, D-amphetamine 1 mg/kg i.p. 30 min before naloxone 5 mg/kg, mean
[2] = Hero-A 0.5: heroin 1.25 mg/kg conditioning, D-amphetamine 0.5 mg/kg i.p. 30 min before preference session
[3] = Hero-A 1: heroin 1.25 mg/kg conditioning, D-amphetamine 1 mg/kg i.p. 30 min before preference session

Q: Which results are given for `C[C@H](N)Cc1ccccc1.C[C@H](N)Cc1ccccc1.O=S(=O)(O)O` [D-amphetamine, D-amphetamine sulfate]?
A: Abdominal constrictions score (Abd C) (Sprague-Dawley rats; [1]): 0.0; Abnormal posture score (Ab P) (Sprague-Dawley rats; [1]): 0.0; Chromodacryorrhea score (Chr) (Sprague-Dawley rats; [1]): 5.0; Diarrhea score (Diarr) (Sprague-Dawley rats; [1]): 2.0; Erection or ejaculation score (Er Ej) (Sprague-Dawley rats; [1]): 0.0; Escape attempts score (Esc A) (Sprague-Dawley rats; [1]): 1.8; Facial fasciculation or teeth chattering score (F F T C) (Sprague-Dawley rats; [1]): 2.0; Global Score (Sprague-Dawley rats; [1]): 22.5; Irritability score (Irrit) (Sprague-Dawley rats; [1]): 0.0; Profuse salivation score (Pr Sal) (Sprague-Dawley rats; [1]): 5.3; Ptosis score (Ptos) (Sprague-Dawley rats; [1]): 0.0; Swallowing movements score (Sw M) (Sprague-Dawley rats; [1]): 1.0; Weight loss score (W Los) (Sprague-Dawley rats; [1]): 2.0; Wet dog shakes score (W D S) (Sprague-Dawley rats; [1]): 3.5; effect on naloxone precipitated withdrawal symptoms of heroin (Sprague-Dawley rats; D-amphetamine 1 mg/kg): did not reduce the withdrawal symptoms of heroin; effect on chromodacryorrhea (Sprague-Dawley rats; D-amphetamine 1 mg/kg, increase not significant): tended to increase; effect on the heroin-induced increase of distance travelled in the drug-paired compartment (C57BL/6J mice; D-amphetamine 0.5 mg/kg): had no effect; effect on the heroin-induced increase of time spent in the drug-paired compartment (C57BL/6J mice; D-amphetamine 0.5 mg/kg): non-significantly reduced; effect on the heroin-induced increases of time spent and distance travelled in the drug-paired compartment (C57BL/6J mice; D-amphetamine 1 mg/kg): did not modify; effect on the place preference induced by heroin (C57BL/6J mice; D-amphetamine 0.5, 1 mg/kg i.p. before preference session): do not show a reliable effect; total distance travelled in two compartments (FIG. 3) (C57BL/6J mice; D-amphetamine 0.5 and 1 mg/kg i.p. before preference session): at 0.5 mg/kg, but not at 1 mg/kg decreased the total distance travelled in two compartments; Distance travelled in the drug-paired compartment (C57BL/6J mice; [2]): 6797.2 cm; Distance travelled in the two compartments (Drug + Vehicle) (C57BL/6J mice; [2]): 11379.9 cm; Distance travelled in the vehicle-paired compartment (C57BL/6J mice; [2]): 4582.7 cm; Distance travelled, drug-paired minus vehicle-paired compartment (C57BL/6J mice; [2]): 2214.6 cm; Time spent in the drug-paired compartment (C57BL/6J mice; [2]): 984.5 s; Time spent in the vehicle-paired compartment (C57BL/6J mice; [2]): 815.5 s; Time spent, drug-paired minus vehicle-paired compartment (C57BL/6J mice; [2]): 168.9 s; Distance travelled in the drug-paired compartment (C57BL/6J mice; [3]): 7416.7 cm; Distance travelled in the two compartments (Drug + Vehicle) (C57BL/6J mice; [3]): 13005.6 cm; Distance travelled in the vehicle-paired compartment (C57BL/6J mice; [3]): 5588.9 cm; Distance travelled, drug-paired minus vehicle-paired compartment (C57BL/6J mice; [3]): 1827.8 cm; Time spent in the drug-paired compartment (C57BL/6J mice; [3]): 1048.3 s; Time spent in the vehicle-paired compartment (C57BL/6J mice; [3]): 751.7 s; Time spent, drug-paired minus vehicle-paired compartment (C57BL/6J mice; [3]): 296.5 s
